Patent US5948793A, “3-pyridyloxymethyl heterocyclic ether compounds useful in controlling neurotransmitter release” (Abbott Laboratories, priority 1995, dated 1999)
Where a name gives a salt, the structure may show the parent alone. Read-outs that look alike come from different tables or passages of the source.

Key:
[1] = biological target: neuronal nicotinic cholinergic channel receptors; assay: [3H]-cytisine displacement binding to neuronal nicotinic cholinergic channel receptors; format: rat (crude synaptic membranes from whole rat brain); settings: read-out: Receptor Binding Ki
Description: B. Protocol For Determination of Nicotinic Cholinergic Channel Receptor Binding Potencies of Ligands
Binding of [^3 H]-cytisine ([^3 H]-CYT) to nicotinic receptors was accomplished using crude synaptic membrane preparations from whole rat brain (Pabreza et al., Molecular Pharmaol., 1990, 39:9). Washed membranes were stored at -80° C. prior to use. Frozen aliquots were slowly thawed and resuspended in 20 volumes of buffer (containing: 120 mM NaCl, 5 mM KCl, 2 mM MgCl2, 2 mM CaCl2 and 50 mM Tris-Cl, pH 7.4 @4° C.). After centrifuging at 20,000×g for 15 minutes, the pellets were resuspended in 30 volumes of buffer. Homogenate (containing […]) was added to triplicate tubes containing concentrations of test compound and [^3 H]-CYT (1.25 nM) in a final volume of 500 μL. Samples were incubated for 60 minutes at 4° C., then rapidly filtered through Whatman GF/B filters presoaked in 0.5% polyethylimine using 3×4 mL of ice-cold buffer. The filters are counted in 4 mL of Ecolume® (ICN). […] Alternately, data were expressed as a percentage of the total specific binding.

[2] = system: nAChR evoked release of [3H]-dopamine, rat striatal slices; assay: Striatal dopamine release assay (nAChR evoked release of [3H]-dopamine from superfused rat striatal slices); format: cell-based, rat (male Sprague-Dawley); settings: Table 1, relative to 100 nM (-)-nicotine
Description: The protocol for this procedure follows below.
A. Protocol for Determination of Striatal Dopamine Release.
nAChR evoked release of [ring-2,5,6-^3 H]-dopamine (24.4 Ci/mmol) was measured in superfused rat striatal slices. Striata were dissected from two male Sprague-Dawley rats per experiment and sliced 0.35×0.25 mm by a McIlwain Tissue Chopper (Brinkman Instrument Co., Westbury, N.Y.). After two washes with Krebs-HEPES buffer (137 mM NaCl, 4.7 mM KCl, 1 mM MgSO4, 2.5 mM CaCl2, 1.25 mM NaH2 PO4, 10 mM glucose, 15 mM HEPES-NaOH, pH 7.4, containing 10 μM pargyline and 10 μM ascorbic acid), slices were preincubated for 10 minutes at 37° C. under 95%/5% O2 /CO2. After replacing the buffer, slices were labeled with 100 nM [^3 H]-dopamine for 25 min in Krebs-HEPES at 37° C. Aliquots of slices were placed in 18 superfusion chambers of a Brandel SP2000 superfusion apparatus (Brandel, Gaithersberg, Md.). Following 47 minutes of washout, slices were exposed to agonist at various concentrations for 4 minutes. Antagonists or inhibitors, when present were introduced 4 minutes prior to and during agonist exposure. Collected fractions were counted in 5 mL of Ecolume. Tissue was recovered from superfusion chambers, solubilized with 1 mL of Solvable™ (DuPont-NEN) and counted in 15 mL of Ecolume. Fractional release of [^3 H]-dopamine was calculated from radioactivity above baseline as a fraction of total radioactivity.

[3] = system: release of dopamine and acetylcholine; settings: cited from earlier work
[4] = cited from earlier work
[5] = system: heart; settings: in vivo; cited from earlier work
[6] = acutely- and chronically-administered; also observed in aged animals; cited from earlier work
[7] = system: dopaminergic neurons; settings: animals with induced brain injuries; cited from earlier work
[8] = transdermal patches; cited from earlier work
[9] = in vivo; cited from earlier work
[10] = system: cholinergic ligand-gated channels, PC12 cells; assay: Cholinergic channel activation in PC12 cells (whole-cell patch-clamp); format: cell-based
Text: D. Protocols for the Determination of Cholinergic Channel Activation in PC12 Cells.
The cholinergic channel activator properties of Example 9 were investigated in PC12 cells using the whole-cell patch-clamp approach to measure current flow through ligand-gated membrane channels.

[11] = Table 1, [3H]-cytisine 1.25 nM, 60 min at 4° C.
[12] = example concentration * = 10 μM
[13] = example concentration *** = 0.1 μ
[14] = example concentration ** = 1 μM
[15] = Table 2, [3H]-cytisine 1.25 nM, 60 min at 4° C.

In the case of `Cc1ccncc1OC[C@@H]1CCCN1C.Cl.Cl` [Example 46, 4-methyl-3-((1-methyl-2-(S)-pyrrolidinyl)methoxy)pyridine dihydrochloride], the Ki [1, 11] is reported as 4 nM and the “Dopamine Release relative to Nicotine” value [2, 12] is reported as 0.85.

In the case of `C[C@H](N)Cc1ccccc1` [d-amphetamine], the “release of dopamine and acetylcholine” value [3] is listed as “enhance the release of dopamine and acetylcholine”.

In the case of `CN1CCC[C@@H]1COc1cccnc1.Cl` [Example 1, 3-((1-methyl-2-(R)-pyrrolidinyl)methoxy)pyridine hydrochloride], the Ki [1, 11] is reported as 23 nM and the “Dopamine Release relative to Nicotine” value [2, 12] is reported as 0.08.

In the case of `CN1CCC[C@H]1COc1cnc2ccccc2c1.Cl` [Example 31, 3-(1-methyl-2-(S)-pyrrolidinylmethoxy)quinoline hydrochloride], the Ki [1, 11] is reported as 0.7 nM and the “Dopamine Release relative to Nicotine” value [2, 12] is reported as 0.15.

In the case of `CN1CCCC1c1cccnc1` (single isomer, unassigned; (-)) [(-)-nicotine], the “release of dopamine and acetylcholine” value [3] is given as “enhance the release of dopamine and acetylcholine”, the oral bioavailability [4] is given as “poor oral bioavailability” and the “cardiac workload and oxygen demand” value [5] is given as “increasing cardiac workload and oxygen demand”. The cognitive function [6] was “enhances cognitive function in rats”, the “pre-synaptic loss of functional dopaminergic neurons” value [7] was “can prevent pre-synaptic loss of functional dopaminergic neurons” and the “symptoms of ADD” value [8] was “improve the symptoms of ADD”. The sensory-gating impairments [9] was “normalize sensory-gating impairments”.

With `Cc1ccc(OC[C@H]2CCCN2)cn1.Cl.Cl` [Example 37, 6-methyl-3-(2-(R)-pyrrolidinylmethoxy)pyridine dihydrochloride] the Ki [1] was 0.5 nM and the “Dopamine Release relative to Nicotine” value [2, 12] was 0.8.

With `Cl.Cl.c1cncc(OC[C@@H]2CCN2)c1` [Example 9, 3-(2-(S)-azetidinylmethoxy)pyridine dihydrochloride] the Ki [1, 11] was 0.05 nM, the “Dopamine Release relative to Nicotine” value [2, 12] was 1.0 and the “cholinergic channel activator properties (current flow through ligand-gated channels)” value [10] was “clear agonist activity”.

For `CN1CC[C@H]1COc1cccnc1.Cl.Cl` [Example 10, 3-((1-methyl-2-(S)-azetidinyl)methoxy)pyridine dihydrochloride], the Ki [1] was 0.25 nM and the “Dopamine Release relative to Nicotine” value [2, 12] was 1.0.

For `COC(=O)C(c1ccccc1)C1CCCCN1` (stereo not drawn) [methylphenidate], the “release of dopamine and acetylcholine” value [3] is given as “enhance the release of dopamine and acetylcholine”.

With `Cc1ccc(OC[C@@H]2CCCN2)cn1.Cl.Cl` [Example 18, 6-methyl-3-(2-(S)-pyrrolidinylmethoxy)pyridine dihydrochloride] the Ki [1] was 0.28 nM and the “Dopamine Release relative to Nicotine” value [2, 13] was 1.0.

In the case of `CCN1CCC[C@H]1COc1cccnc1.Cl.Cl` [Example 38, 3-((1-ethyl-2(S)-pyrrolidinyl)methoxy)pyridine dihydrochloride], the Ki [1] is reported as 13 nM and the “Dopamine Release relative to Nicotine” value [2, 12] is reported as 0.6.

In the case of `Clc1ccc(OC[C@@H]2CCN2)cn1` [Example 52, 3-(2-(S)-azetidinylmethoxy)-6-chloropyridine dihydrochloride], the Ki [1, 11] is reported as 0.04 nM and the “Dopamine Release relative to Nicotine” value [2, 12] is reported as 1.0.

In the case of `CN1CCC[C@H]1COc1cncc(Cl)c1.Cl.Cl` [Example 16, 5-chloro-3-((1-methyl-2-(S)-pyrrolidinyl)methoxy)pyridine dihydrochloride], the “Dopamine Release relative to Nicotine” value [2, 14] is reported as 1.0.

In the case of `CN1CCC[C@H]1COc1cccnc1.O=C(O)/C=C/C(=O)O` [Example 4, 3-((1-methyl-2-(S)-pyrrolidinyl)methoxy)pyridine fumarate], the Ki [1] is reported as 0.2 nM and the “Dopamine Release relative to Nicotine” value [2, 12] is reported as 1.0.

For `Cc1ccc(OC[C@@H]2CCN2C)cn1.Cl.Cl` [Example 59, 3-((1-methyl-2-(S)-azetidinyl)methoxy)-6-methylpyridine dihydrochloride], the Ki [1, 11] was 4.5 nM and the “Dopamine Release relative to Nicotine” value [2, 12] was 0.7.

`CN1CCC[C@@H]1COc1ccc(Cl)nn1` [Example 5, oxalate] gave a Ki [1] of 87 nM.

For `CN1CCC[C@H]1COc1cncc(Br)c1` [Example 28, 5-bromo-3-((1-methyl-2-(S)-pyrrolidinyl)methoxy)pyridine dihydrochloride], the Ki [1] was 0.23 nM.

With `CC[C@@H]1C[C@@H](COc2cccnc2)N(C)C1` [Example 25, 3-((trans-1-methyl-4-ethyl-2(S)-pyrrolidinyl)methoxy)pyridine dihydrochloride] the Ki [1] was 14.7 nM.

In the case of `CN1CC[C@H]1COc1cnccn1.Cl.Cl` [Example 8, 2-((1-methyl-2-(S)-azetidinyl)methoxy)pyrazine dihydrochloride], the Ki [1, 11] is reported as 33 nM and the “Dopamine Release relative to Nicotine” value [2, 14] is reported as 0.55.

`O[C@H]1CN[C@H](COc2cccnc2)C1` [Example 72, 3-((trans-4-hydroxy-2-(S)-pyrrolidinyl)methoxy)pyridine dihydrochloride] gave a Ki [1, 15] of 110 nM.

With `Cc1ccc(OC[C@@H]2CCCN2C)cn1.Cl.Cl` [Example 19, 6-methyl-3-((1-methyl-2-(S)-pyrrolidinyl)methoxy)pyridine dihydrochloride] the Ki [1] was 1.47 nM and the “Dopamine Release relative to Nicotine” value [2, 13] was 0.78.

Work on `C[C@@H]1CC[C@@H](COc2cccnc2)N1C` [Example 89, 3-((trans-1,5-dimethyl-2-(S)-pyrrolidinyl)methoxy)pyridine hydrochloride] yielded a Ki [1, 15] of 91.2 nM.

Work on `C[C@@H]1C[C@@H](COc2cccnc2)N(C)C1` [Example 24, 3-((trans-1,4-dimethyl-2(S)-pyrrolidinyl)methoxy)pyridine dihydrochloride] yielded a Ki [1] of 4.2 nM.

Molecule `CN1C[C@@H](C#N)C[C@H]1COc1cccnc1` [Example 90, 3-((cis-4-cyano-1-methyl-2(S)-pyrrolidinyl)methoxy)pyridine dihydrochloride] has a Ki [1, 15] of 18.4 nM.

With `Brc1cncc(OC[C@@H]2CCN2)c1` [Example 67, 3-(2-(S)-azetidinylmethoxy)-5-bromopyridine dihydrochloride] the Ki [1, 15] was 0.2 nM.

For `O=C(O)/C=C/C(=O)O.c1cncc(OC[C@@H]2CCCN2)c1` [Example 14, 3-(2-(S)-pyrrolidinylmethoxy)pyridine fumarate], the Ki [1] was 0.14 nM and the “Dopamine Release relative to Nicotine” value [2, 14] was 1.0.

`c1cncc(OCC[C@@H]2CCCN2)c1` [Example 102, 3-(2-(2-(S)-pyrrolidinyl)ethoxy)pyridine dihydrochloride] gave a Ki [1, 15] of 34.9 nM.

In the case of `Cl.Cl.Clc1cncc(OC[C@H]2CCCN2)c1` [Example 33, 5-chloro-3-(2-(R)-pyrrolidinylmethoxy)pyridine dihydrochloride], the Ki [1, 11] is reported as 0.2 nM and the “Dopamine Release relative to Nicotine” value [2, 14] is reported as 0.62.

Work on `CN1CCC[C@H]1COc1cnccn1` [Example 3, 2-((1-methyl-2-(S)-pyrrolidinyl)methoxy)pyrazine fumarate] yielded a Ki [1, 15] of 20 nM.
